Holding throughout (type): ADME, organism-based
What all share (details): in vivo

Data set [1] in a line: Observed apparent oral clearance in female C57BL/6NJ mouse at 50 mg/kg, ip measured upto 24 hrs by UHPLC-ESI-Q-Orbitrap-MS analysis.
A short description of data set [2]: AUC (0 to t) in female C57BL/6NJ mouse at 50 mg/kg, ip measured upto 24 hrs by UHPLC-ESI-Q-Orbitrap-MS analysis. The arrangement: dose 50 mg/kg, time < 24 hrs, route ip.
A short description of data set [3]: Observed apparent oral clearance in male C57BL/6NJ mouse at 50 mg/kg, ip measured upto 24 hrs by UHPLC-ESI-Q-Orbitrap-MS analysis.
The nature of data set [4]: AUC (0 to t) in male C57BL/6NJ mouse at 50 mg/kg, ip measured upto 24 hrs by UHPLC-ESI-Q-Orbitrap-MS analysis. The arrangement: time < 24 hrs, dose 50 mg/kg, route ip.

Take `Cc1sc2c(c1C)C(c1ccc(Cl)cc1)=N[C@@H](CC(=O)OC(C)(C)C)c1nnc(C)n1-2`: the CL/F in data set [1] is 1.22 (mg)/(ug/ml)/hr; in data set [3] it was 0.661 (mg)/(ug/ml)/hr. In addition, the AUCt in data set [2] amounted to 41.1 µg/mL/h; in data set [4], 75.1 µg/mL/h.

Consider `[2H]C([2H])([2H])c1sc2c(c1C)C(c1ccc(Cl)cc1)=N[C@@H](CC(=O)OC(C)(C)C)c1nnc(C)n1-2`, for which the AUCt in data set [2] came out at 50.5 µg/mL/h; in data set [4], 94.2 µg/mL/h. The CL/F in data set [3] is 0.528 (mg)/(ug/ml)/hr.

Values taken from ChEMBL document CHEMBL5357011, “Chemical Catalysis Guides Structural Identification for the Major In Vivo Metabolite of the BET Inhibitor JQ1” (ACS Med Chem Lett, 2024).
